Results published in patent US20210353579A1, “HIGH PENETRATION COMPOSITIONS AND USES THEREOF” (Techfields Pharma Co., Ltd., priority 2006, published 2021).

Legend:
[1] = Plasma levels after transdermal administration to hairless mice; format: in vivo; conditions: mouse, in vivo
Experimental: Tested compounds (20% solution or suspension in 1 mL isopropanol) are administered transdermally to the skin of intact hairless mice. The plasma levels of the parent compounds are determined by HPLC.

mice [2] = experiment: Analgesic activity, D'Amour-Smith method (tail heat, pain threshold); format: in vivo; conditions: 200 mg/kg transdermally vs 200 mg/kg diflunisal orally
Experimental: After the tested compounds are administered (the dosages for each test compounds are specified in FIG. 3, prodrug compounds are administered orally and transdermally respectively in different groups, while parent compounds are administered orally) to a group of mice (six mice every group), the tails of mice are exposed to heat and the prolongation time of pain threshold is determined. […] The prodrug compounds show similar analgesic activities when the same dosages are administered orally or transdermally. (FIG. 3)

mice [3] = experiment: Analgesic activity, acetic acid writhing; format: in vivo; conditions: 30 min before acetic acid
Experimental: The prodrug compounds are administered either transdermally or orally. The parent compounds are administered orally. The number of writhing that occurred when mice are administered the acetic acid solution are counted, and the rate of inhibition based on the control group which was not pretreated with any test compounds is calculated. […] The A group is the control group.

rats = experiment: Antipyretic activity, E. coli suspension as pyrogen; format: in vivo; conditions: in °C (unit assumed)
Experimental: Rats are administered with sterilized E. coli suspension as a pyrogen. Each group of rats are administered with a prodrug compounds or parent compounds at a dosage specified below. The prodrug compounds are administered either orally or transdermally. The parent compounds are administered orally.

human skin tissue = conditions: pH 7.4
rat = conditions: rats
Experimental: The acute toxicity of the prodrug compounds and parent compounds are measured by LD50 of rat.
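For LD50 of HPP in this document: acute toxicity in rats expressed as LD50, determined for both prodrugs and their parent compounds.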

CC(=O)O.CCN(CC)CCOC(=O)c1cc(-c2ccc(F)cc2F)ccc1O [diethylaminoethyl 5-(2,4-difluorophenyl) salicylate.AcOH]
Peak plasma concentration of parent compound after prodrug compound [1]: 50 mg/L
t, time to peak plasma level of parent compound after prodrug compound [1]: 30 min
analgesic activity, prolongation time of pain threshold of mice tails (mice [2]): stronger analgesic activity
% (rate of writhing inhibition) (mice [3]; 50 mg/kg transdermally): 62%
No. of Writhing (mice [3]; 50 mg/kg transdermally): 13.2
% (rate of writhing inhibition) (mice [3]; 100 mg/kg transdermally): 71%
No. of Writhing (mice [3]; 100 mg/kg transdermally): 10.2
body temperature, t = 0 min (rats; 100 mg/kg transdermally): 37.22 ± 0.07
body temperature, t = 90 min (rats; 100 mg/kg transdermally): 36.42 ± 0.06
body temperature, t = 180 min (rats; 100 mg/kg transdermally): 36.40 ± 0.05
body temperature, t = 270 min (rats; 100 mg/kg transdermally): 36.47 ± 0.08
body temperature, t = 0 min (rats; 150 mg/kg transdermally): 37.26 ± 0.08
body temperature, t = 90 min (rats; 150 mg/kg transdermally): 36.20 ± 0.05
body temperature, t = 180 min (rats; 150 mg/kg transdermally): 36.30 ± 0.07
body temperature, t = 270 min (rats; 150 mg/kg transdermally): 36.31 ± 0.08
In vitro penetration rate (apparent flux), prodrug compounds (human skin tissue): 100 μg/cm^2/h
LD50 of HPP (rat): 1000 mg/kg
